Entries after “also recorded” stand apart in the source; their conditions may differ.
How the values were obtained:
Assay type in all cases: cell-based
[1] = system: IRS-1; experiment: Immunoblot analysis of IRS-1 (protein, phosphorylation, half-life, p85 coimmunoprecipitation)
Procedure: (§1) 2.2 Immunoblot analysis of gene silencing of PRCP or PREP in cancer cells. Mouse anti-PRCP antibody was purchased from Abcam (Cambridge, Mass., USA). Goat anti-PREP antibody was purchased from R&D Systems (Minneapolis, Minn., USA). Mouse anti-R-actin antibody antibodies was from Santa Cruz Biotechnology (Santa Cruz, Calif., USA). Panc-1 pancreatic cancer cells and MCF7 breast cancer cells were cultured to 80% confluence, cells were rinsed three times with pre-cooled PBS, 500 μl of lysis buffer (150 mmol/L Nacl, 1% Triton-x-100, 50 mmol/l TrispH8.0, 1 mmol/L PMSF, 1 ug/L aprotinin, 1 ug/L leupeptin, 1 ug/L peptain) was added to the cells. Cells were scraped and transferred to a centrifuge tube with a pipette. The lysates were spun in a microcentrifuge at maximal speed for 10 minutes at 4° C. to get rid of the insoluble fraction. Protein concentration was determined by Bradford assay. For immunoprecipitation: 2-5 ug protein-specific antibodies were added to 250-500 ug of lysates in a tube and incubated on an ordital shaker 4° C. for 2-4 hours with moderate shaking, then 20 ul Protein G beads (Santa Cruz Biotechnology (Santa Cruz, Calif., USA.) were added and the mixture was incubated with moderate shaking for another hour. After washing the beads in lysis buffer five times, the immunoprecipitates were boiled in 2× Laemmli sample buffer (50 mmoL/L Tris-HCL (pH8.0), 100 mmoL/L DTT, 2% SDS, 0.1% bromophenol blue, 10% glycerol) for five minutes. The proteins were separated by conventional SDS-polyacrylamide gel electrophoresis (SDS-PAGE) electrophoresis and transferred to Amersham Hybond-P PVDF membrane (GE Company, Pittsburgh, Pa., USA). For immunoblot, the membrane was blocked in 2% BSA in TBST buffer (Tris 1.21 g+NaCl 5.84 g+800 ml H2O adjusted to pH 8.0 with HCl) for one hour and then incubated with primary antibodies in TBST at room temperature (22-25° C.) for 2 hours. After washing three times with TBST, the membrane was incubated with HRP-conjugated secondary antibodies for 0.5 hours at room temperature. After washing the membrane five times with TBST (5 minutes/each), the membrane was incubated with ECL chromogenic reagent (GE Company, Pittsburgh, Pa., USA) for 1-5 minutes. The blots were exposed to films in darkroom for 1-5 minute. The films were developed in an automatic X-OMAT Developer (KODAK, Rochester, N.Y., USA). […] PREP gene silencing (PREP KD) or PRCP gene silencing (PRCP KD) or gene silencing both PRCP and PREP (DKD) in MCF7 cells reduces expression of PREP and/or PRCP proteins compared with control cells (control) (FIGS. 6B & 6C).
3.2 AKT phosphorylation was examined by immunoblot as described in 3.1. IRS-1 expression was analyzed by immunoblot using anti-IRS-1 antibodies purchased from Santa Cruz Biotechnology (Santa Cruz, Calif., USA). Reduction in PRCP and/or PREP by gene silencing is shown by Western blot and quantitative PCR described in 2.2.
3.4 ZPP or Y29794 inhibits IRS-1 tyrosine phosphorylation and p85 PI3K subunit interaction with IRS-1 and PI3K kinase activity. Panc-1 cells were treated with ZPP (200 μM) or Y29794 (0.5 μM) for 24 hours. Lysates were immunoprecipitated with anti-IRS-1 antibodies and the anti-IRS-1 immunoprecipitates were used for PI3K kinase assay and anti-IRS-1 phospho-tyrosine and anti-p85 immunoblot analysis (FIG. 13). ZPP or Y29794 decreased IRS-1-associated PI3K activity (FIG. 13, upper) and tyrosine phosphorylation of IRS-1 and p85 (FIG. 13, lower).
As described in Example 2.2 and above, the cells with PRCP and PREP gene silencing were used for analysis of PRCP and PREP gene silencing and inhibition of serine phosphorylation and degradation of IRS-1 and its effects on response to rapamycin. […] Compared to control cells, DKD cells show […] serine phosphorylation (S307 and S636/639) of IRS-1 alongside with decreased tyrosine phosphorylation of IRS-1 (FIG. 18B). […]

[2] = system: AKT phosphorylation (S473); experiment: Immunoblot analysis of AKT phosphorylation in cancer cells; settings: 24 hours
Procedure: as §1
3.1 Reduction in AKT phosphorylation is examined by immunoblot using rabbit anti-phospho-AKT […] and rabbit anti-pan AKT antibodies purchased from Cell Signaling Technology (Danvers, Mass., USA) in the cells with gene silencing of PRCP and/or PREP or treated with ZPP or Y29794. Reduction in PRCP and/or PREP is shown by Western blot and quantitative PCR described in 2.2.

[3] = system: Panc-1; experiment: Colony formation assay (clonogenic assay); settings: Panc-1, rapamycin alone 1 nM and 10 nM
Procedure: 1.2. Colony formation assay (clonogenic assay) was used to analyze the effect of ZPP or Y29794 on cancer cell survival. 10^3 Panc-1 cells were plated in 100 mm petri dish in triplicate fed with 10 ml of DMEM containing 10% FBS. The cells were then treated by ZPP for 7 days and cultured for additional three weeks. Cells were then rinsed three times with PBS, fixed with 100% ethanol for 15 min, and stained with 2% crystal violet ethanol solution. The stained colonies were counted. All the results are statistically analyzed by one way ANOVA and two tailed t-test.

[4] = system: mTOR (S2448) phosphorylation; experiment: Immunoblot analysis of mTOR phosphorylation; settings: Panc-1; rapamycin, or Y29794 1 μM (FIG. 19D)
Procedure: Mouse anti-PRCP antibody was purchased from Abcam (Cambridge, Mass., USA). Goat anti-PREP antibody was purchased from R&D Systems (Minneapolis, Minn., USA). Mouse anti-R-actin antibody antibodies was from Santa Cruz Biotechnology (Santa Cruz, Calif., USA). Panc-1 pancreatic cancer cells and MCF7 breast cancer cells were cultured to 80% confluence, cells were rinsed three times with pre-cooled PBS, 500 μl of lysis buffer (150 mmol/L Nacl, 1% Triton-x-100, 50 mmol/l TrispH8.0, 1 mmol/L PMSF, 1 ug/L aprotinin, 1 ug/L leupeptin, 1 ug/L peptain) was added to the cells. Cells were scraped and transferred to a centrifuge tube with a pipette. The lysates were spun in a microcentrifuge at maximal speed for 10 minutes at 4° C. to get rid of the insoluble fraction. Protein concentration was determined by Bradford assay. For immunoprecipitation: 2-5 ug protein-specific antibodies were added to 250-500 ug of lysates in a tube and incubated on an ordital shaker 4° C. for 2-4 hours with moderate shaking, then 20 ul Protein G beads (Santa Cruz Biotechnology (Santa Cruz, Calif., USA.) were added and the mixture was incubated with moderate shaking for another hour. After washing the beads in lysis buffer five times, the immunoprecipitates were boiled in 2× Laemmli sample buffer (50 mmoL/L Tris-HCL (pH8.0), 100 mmoL/L DTT, 2% SDS, 0.1% bromophenol blue, 10% glycerol) for five minutes. The proteins were separated by conventional SDS-polyacrylamide gel electrophoresis (SDS-PAGE) electrophoresis and transferred to Amersham Hybond-P PVDF membrane (GE Company, Pittsburgh, Pa., USA). For immunoblot, the membrane was blocked in 2% BSA in TBST buffer (Tris 1.21 g+NaCl 5.84 g+800 ml H2O adjusted to pH 8.0 with HCl) for one hour and then incubated with primary antibodies in TBST at room temperature (22-25° C.) for 2 hours. After washing three times with TBST, the membrane was incubated with HRP-conjugated secondary antibodies for 0.5 hours at room temperature. […]

[5] = system: S6K (T389) phosphorylation; experiment: Immunoblot analysis of S6K phosphorylation; settings: Panc-1 cells incl. PRCP and PREP silenced cells, rapamycin (FIG. 18D)
Procedure: 2.2 Immunoblot analysis of gene silencing of PRCP or PREP in cancer cells. Mouse anti-PRCP antibody was purchased from Abcam (Cambridge, Mass., USA). Goat anti-PREP antibody was purchased from R&D Systems (Minneapolis, Minn., USA). Mouse anti-R-actin antibody antibodies was from Santa Cruz Biotechnology (Santa Cruz, Calif., USA). Panc-1 pancreatic cancer cells and MCF7 breast cancer cells were cultured to 80% confluence, cells were rinsed three times with pre-cooled PBS, 500 μl of lysis buffer (150 mmol/L Nacl, 1% Triton-x-100, 50 mmol/l TrispH8.0, 1 mmol/L PMSF, 1 ug/L aprotinin, 1 ug/L leupeptin, 1 ug/L peptain) was added to the cells. Cells were scraped and transferred to a centrifuge tube with a pipette. The lysates were spun in a microcentrifuge at maximal speed for 10 minutes at 4° C. to get rid of the insoluble fraction. Protein concentration was determined by Bradford assay. […]

[6] = system: PI3K; experiment: PI3K kinase assay in anti-p85 immunoprecipitates; settings: Panc-1, 24 hours; ZPP 200 μM, Y29794 0.5 μM or rapamycin alone, vs vehicle
Procedure: (§2) PI3K kinase assay kit (Calbiochem, Bilerica, Mass., USA) was used to measure the IRS-1-associated or p85-associated PI3K kinase activity in cells. The indicated cells were treated with different conditions for 24 hours. The cells were rinsed three times with pre-cooled PBS, lysed in 500 μl of lysis buffer (150 mmol/L Nacl, 1% Triton-x-100, 50 mmol/1 Tris (pH8.0, 1 mmol/L PMSF, 1 μg/L aprotinin, 1 μg/Lleupeptin, 1 μg/L peptain). Cell lysates (500 μg, in triplicate) of were used for anti-IRS-1 or anti-p85 immunoprecipitation. The immunoprecipitates were resuspended in 200 μl assay buffer and mixed with the fluorescence-labeled PI3K substrate BODIPY-TMR-phosphatidylinositol (100 μM) and ATP (37° C.) for 1 hour. The fluorescence intensity was measured with a fluorometer (excitation wavelength of 540 nm, emission wavelength […]). The difference between fluorescence intensity between control immunoprecipitates (no lysates) and lysate immunoprecipitates was used to indicate PI3K kinase activity. IR-1 anti-rabbit antibody and rabbit anti-PI3K p85 antibody were purchased from Millipore Corporation (Billerica, Mass., USA). Panc-1 anti-p85 immunoprecipitates were used for PI3K kinase assay (FIG. 12) and immunoblot analysis (FIG. 12). Rapamycin treatment in control cells increased PI3K kinase activity (P<0.01).

[7] = system: PI3K; experiment: PI3K kinase assay in anti-IRS-1 immunoprecipitates; settings: Panc-1, 24 hours; ZPP 200 μM, Y29794 0.5 μM or rapamycin alone
Procedure: as §2, with “(P<0.01). […]” for “(P<0.01).”

Structure (SMILES): CO[C@H]1C[C@@H]2CC[C@@H](C)[C@@](O)(O2)C(=O)C(=O)N2CCCC[C@H]2C(=O)O[C@H]([C@H](C)C[C@@H]2CC[C@@H](O)[C@H](OC)C2)CC(=O)[C@H](C)/C=C(\C)[C@@H](O)[C@@H](OC)C(=O)[C@H](C)C[C@H](C)/C=C/C=C/C=C/1C [rapamycin, (3S,6R,7E,9R,10R,12R,14S,15E,17E,19E,21S,23S,26R,27R,34aS)-9,10,12,13,14,21,22,23,24,25,26,27,32,33,34,34a-hexadecahydro-9,27-dihydroxy-3-[(1R)-2-[(1S,3R,4R)-4-hydroxy-3-methoxycyclohexyl]-1-methylethyl]-10,21-dimethoxy-6,8,12,14,20,26-hexamethyl-23,27-epoxy-3H-pyrido[2,1-c][1,4]oxaazacyclohentriacontine-1,5,11,28,29 (4H,6H,31H)-pentone]
- IRS-1 protein ([1]; MCF7, rapamycin 10 nM, 24 hours): increased; also recorded: induced an increase
- tyrosine phosphorylation of IRS-1 ([1]; Panc-1, rapamycin 10 nM (FIG. 10A legend)): increased
- IRS-1 protein ([1]; Panc-1, rapamycin 10 nM, 24 hours): significantly increased; also recorded: induced an increase
- serine phosphorylation (S307 and S636/639) of IRS-1 ([1]; control Panc-1 cells, rapamycin (FIG. 18D)): inhibits; also recorded: inhibiting
- IRS-1 protein ([1]; control Panc-1 cells, rapamycin, concentration not given): increases; also recorded: induced increase
- AKT phosphorylation ([2]; MCF7, rapamycin 10 nM): increased; also recorded: induced an increase
- AKT phosphorylation ([2]; Panc-1, rapamycin 10 nM): significantly increased; also recorded: induced an increase
- cell survival (colony formation) [3]: did not affect
- mTOR (S2448) phosphorylation [4]: inhibits; also recorded: completely inhibited
- phosphorylation of S6K (T389) [5]: completely inhibited
- PI3K kinase activity (p85-associated) [6]: increases; also recorded: significantly elevated
- IRS-1-associated PI3K activity [7]: increases; also recorded: significantly elevated
